What was measured:
[1] = system: mTORC2 signaling (FHRE dependent gene expression); assay: FHRE-luciferase reporter analysis in A549; type: cell-based, human; conditions: A549 cells, treated for 24 hours; FIG. 7d
Source text: mTORC2 activates SGK3, and SGK3 phosphorylates Fox03a, allowing Fox03a to remain in the cytoplasm. When mTORC2 is inhibited, Fox03a is dephosphorylated and translocated to the nucleus, and in the nucleus, it binds to FHRE located in a gene promoter to induce gene expression. Therefore, the change in the intracellular location of Fox03a and FHRE dependent gene expression become indicators for evaluating mTORC2 activity. In order to evaluate the effect of norathyriol on the mTORC2 activity, norathyriol was treated to A549, and then expression of an FHRE-synthetic luciferase gene was investigated by luciferase reporter analysis.
Specifically, A549 cells of 2×10^5 were seeded in a 35 mm culture dish and cultured for 1 day, and then a 2.5 μg FHRE-Luc plasmid and a 0.1 μg renilla luciferase plasmid were introduced by a transfection method using Lipofectamine LTX reagent (Thermofisher). After 18 hours, norathyriol was treated for 24 hours. Luciferase assay was performed with Dual Luciferase Reporter Assay System (Promega) according to the manufacturer's instructions.

[2] = system: CYFIP1-overexpressing hippocampal neurons; assay: Excessive dendritic arborization in CYFIP1-overexpressing primary hippocampal neurons; type: cell-based, rat
Source text: Neural stem cells were primarily cultured from the hippocampal vestigial region of white mouse E16 embryos, and CYFIP1, which was found as a gene causing autism spectrum disorder, was introduced by transfection and overexpressed. When the neural stem cells in which CYFIP1 was overexpressed were differentiated, the neurite length and branch number increased compared to the normal cell, the number of dendritic spine increased, and morphological changes such as an increase in rod-shaped dendritic spines with a size of 0.6 μm or more, which are larger than the normal size, were accompanied. Therefore, CYFIP1 overexpression was used as a culture cell model of autism.
By treating norathyriol to the differentiating neural stem cells exogenously overexpressing CYFIP1, the effect of norathyriol on excessive dendritic arborization generated by CYFIP1 overexpression was investigated. By immunofluorescent staining method using an antibody against pan-neurofilament and an antibody against PSD (post-synaptic density)-95, which was expressed in the post-synaptic dendrite of synapses, the neurite length and dendritic spine number were measured and quantified. In addition, by DAPI staining, the nuclei of the neural cells were visualized.
Hippocampus-derived neural progenitor cells were isolated from the forebrain of E16 mouse embryos. SD-rat gestational age 16-day mice (Orient Bio) were purchased and the mice were anesthetized with CO2 deeply, and then the embryos were taken out. The embryos were immersed in Ca^2+/Mg^2+-free HBSS (Invitrogen) and the forebrain was isolated using a sterile injection needle under a dissecting microscope. While changing HBSS, the forebrain was separated into the left and right hemispheres using a forcep, and meninges were peeled off, and then the hippocampal eminence was separated. After washing the separated and collected tissue with cold N2 culture medium twice, 37° C. N2 culture medium was added and cells were slowly and mechanically isolated using a pipette. As the pipette, a Pasteur pipette coated with 1% BSA was used after making the pipette narrow and soft in diameter by firing the tip. After waiting for 3 minutes to allow undissolved tissue or vascular cells to settle, the supernatant was carefully taken as dissolved cells. These tissues were collected and mechanically isolated with the pipette in Ca^2+/Mg^2+-free HBSS (Invitrogen) buffer. The cells were seeded at 19,000 cells/cm^2 in a 35 mm culture dish coated with 15 μg/ml poly-L-ornithine and 1 μg/ml fibronectin (Sigma), and cultured using a serum-free N2 medium (medium for proliferation) in which 10 ng/mL bFGF (Invitrogen) was added under a condition of 5% CO2. […]

Arc protein expression = assay: mGluR-dependent Arc protein expression in cerebral neurons; type: cell-based
Method: When mGluR is activated in dendritic spines of cerebral neurons, Arc protein is synthesized, and the Arc protein promotes endocytosis of an AMPA receptor to form LTD.
Specifically, DHPG was treated to cerebral neurons, which were obtained by primary culture of white mouse embryo E16 cerebral regions and differentiated for […] (DIV21), for 5 minutes or 10 minutes to activate mGluR. As an Arc antibody, Arc protein (green) and PSD95 (red), which is a marker antibody of postsynaptic density of a synapse, were under
After double immunofluorescent staining of Arc protein with an Arc antidody (green) and PSD95, a marker of postsynaptic density of synapse, with an PSD95 antibody (red), Arc expression in dendritic spines was quantified as the number of Arc+PSD95 double stained puncta per 20 μm neurite length by confocal scanning microscopic scanning.

normal mice = assay: 3 chamber test in normal mice; type: in vivo; conditions: 5 mg/kg, sociability measurement-2 session, FIG. 14b
Method: 3-chamber test is a test to confirm sociability, social cognition, and social sexual preference, and it was tested by composing sessions 1 and 2. The experimental site was consisted of three chambers made of transparent acrylic walls with a small door and each chamber was length 50 cm×width 100 cm×height 50 cm. Through a cylindrical cage, the sense of smell and minimal contact of the test mice to the unfamiliar mouse were allowed. Prior to the test, the test mice were placed in an intermediate chamber and adapted for 5 minutes with both doors closed. The test was performed by dividing into sessions I and II. In the 3-chamber sociability measurement-1 session, an unfamiliar mouse met first was placed in a transparent box located at one end of the three rooms, and an empty transparent box of the same size was placed in the room located at the other side, and the target mouse was placed in the middle room, and then the time searching toward the counterpart within the social interaction zone was measured.
In order to verify this possibility, the efficacy of athyriol on memory ability and sociability of normal animals was investigated. […]

expression of the FHRE-synthetic luciferase gene [1] | Structure (SMILES) | reduction of number of dendritic spines per unit neurite length ([2]; 50 nM and 100 nM, on average, FIG. 10b) [%] | number of dendritic spines in primary branching neurites ([2]; FIG. 10b) | number of dendritic spines per cell ([2]; FIG. 10b) | number of dendritic spines per unit neurite length ([2]; from 10 nM, FIG. 10) | increase of Arc protein synthesis (immunoblot of cell lysate) (Arc protein expression; DHPG-induced, FIG. 12b) | Arc synthesis in dendritic spines (immunofluorescent staining) (Arc protein expression; pretreated for 2 hours before treating DHPG, FIG. 12a) | increase in ratio of searching time for familiar mice to searching time for unfamiliar mice compared to vehicle control (normal mice) [%]
increased by twice or more | O=c1c2cc(O)c(O)cc2oc2cc(O)cc(O)c12 [norathyriol, 1,3,6,7-tetrahydroxy-9H-xanthen-9-one] | ≤ 50 | reduced by norathyriol in a similar tendency | reduced by norathyriol in a similar tendency | decrease in the number of dendritic spines was observed | inhibited in a dose-dependent manner | the increase of Arc synthesis by DHPG was not found | 
 | COc1cc(O)c2c(=O)c3cc(O)c(O)cc3oc2c1 [athyriol, 1,6,7-Trihydroxy-3-methoxy-9H-xanthen-9-on] |  |  |  |  |  |  | 11
